Reference: ChEMBL document CHEMBL5247623, “The SAR and action mechanisms of autophagy inhibitors that eliminate drug resistance” (Eur J Med Chem, 2022)

Tests used:
[1] = Inhibition of starvation induced autophagy in human MCF7 cells expressing eGFP-LC3; format: functional, cell-based
U2OS [2] = experiment: Inhibition of autophagy in human U2OS cells expressing tfLC3 incubated for 3 hrs by fluorescent microscopy; format: functional, cell-based
U2OS [3] = experiment: Cytotoxicity against human U2OS cells; format: functional, cell-based
[4] = Inhibition of rapamycin induced autophagy in human MCF7 cells expressing eGFP-LC3; format: functional, cell-based
[5] = molecular target: Phosphatidylinositol 3-kinase catalytic subunit type 3 (Homo sapiens, UniProt Q8NEB9); experiment: Inhibition of VPS34 (unknown origin)
Chain of Phosphatidylinositol 3-kinase catalytic subunit type 3 (Q8NEB9 whole entry): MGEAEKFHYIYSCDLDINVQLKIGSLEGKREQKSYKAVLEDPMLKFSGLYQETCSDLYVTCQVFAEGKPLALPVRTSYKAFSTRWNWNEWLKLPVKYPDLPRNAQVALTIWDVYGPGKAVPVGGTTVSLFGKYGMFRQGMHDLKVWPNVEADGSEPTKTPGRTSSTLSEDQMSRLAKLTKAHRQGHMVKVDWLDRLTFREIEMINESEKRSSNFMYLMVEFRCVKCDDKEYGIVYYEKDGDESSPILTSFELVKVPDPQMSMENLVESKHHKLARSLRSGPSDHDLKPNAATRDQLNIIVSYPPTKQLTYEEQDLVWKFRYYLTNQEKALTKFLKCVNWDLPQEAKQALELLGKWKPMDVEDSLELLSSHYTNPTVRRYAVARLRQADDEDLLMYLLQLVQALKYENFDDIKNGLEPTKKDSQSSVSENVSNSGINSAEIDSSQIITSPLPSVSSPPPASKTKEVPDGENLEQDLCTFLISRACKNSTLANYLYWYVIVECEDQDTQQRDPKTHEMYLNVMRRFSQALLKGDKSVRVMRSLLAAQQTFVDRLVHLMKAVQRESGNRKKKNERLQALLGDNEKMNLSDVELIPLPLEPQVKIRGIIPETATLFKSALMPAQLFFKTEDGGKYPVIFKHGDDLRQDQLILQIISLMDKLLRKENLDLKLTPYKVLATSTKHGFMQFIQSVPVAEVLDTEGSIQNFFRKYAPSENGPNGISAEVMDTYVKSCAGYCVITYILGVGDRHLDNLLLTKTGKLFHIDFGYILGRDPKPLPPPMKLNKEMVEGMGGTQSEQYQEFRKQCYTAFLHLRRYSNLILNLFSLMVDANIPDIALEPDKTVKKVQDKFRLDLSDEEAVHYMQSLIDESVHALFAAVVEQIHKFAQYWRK

[6] = molecular target: T1, Serine/threonine-protein kinase ULK2 (Homo sapiens, UniProt Q8IYT8); experiment: Inhibition of ULK2 (unknown origin)
T1 sequence (Q8IYT8 whole entry): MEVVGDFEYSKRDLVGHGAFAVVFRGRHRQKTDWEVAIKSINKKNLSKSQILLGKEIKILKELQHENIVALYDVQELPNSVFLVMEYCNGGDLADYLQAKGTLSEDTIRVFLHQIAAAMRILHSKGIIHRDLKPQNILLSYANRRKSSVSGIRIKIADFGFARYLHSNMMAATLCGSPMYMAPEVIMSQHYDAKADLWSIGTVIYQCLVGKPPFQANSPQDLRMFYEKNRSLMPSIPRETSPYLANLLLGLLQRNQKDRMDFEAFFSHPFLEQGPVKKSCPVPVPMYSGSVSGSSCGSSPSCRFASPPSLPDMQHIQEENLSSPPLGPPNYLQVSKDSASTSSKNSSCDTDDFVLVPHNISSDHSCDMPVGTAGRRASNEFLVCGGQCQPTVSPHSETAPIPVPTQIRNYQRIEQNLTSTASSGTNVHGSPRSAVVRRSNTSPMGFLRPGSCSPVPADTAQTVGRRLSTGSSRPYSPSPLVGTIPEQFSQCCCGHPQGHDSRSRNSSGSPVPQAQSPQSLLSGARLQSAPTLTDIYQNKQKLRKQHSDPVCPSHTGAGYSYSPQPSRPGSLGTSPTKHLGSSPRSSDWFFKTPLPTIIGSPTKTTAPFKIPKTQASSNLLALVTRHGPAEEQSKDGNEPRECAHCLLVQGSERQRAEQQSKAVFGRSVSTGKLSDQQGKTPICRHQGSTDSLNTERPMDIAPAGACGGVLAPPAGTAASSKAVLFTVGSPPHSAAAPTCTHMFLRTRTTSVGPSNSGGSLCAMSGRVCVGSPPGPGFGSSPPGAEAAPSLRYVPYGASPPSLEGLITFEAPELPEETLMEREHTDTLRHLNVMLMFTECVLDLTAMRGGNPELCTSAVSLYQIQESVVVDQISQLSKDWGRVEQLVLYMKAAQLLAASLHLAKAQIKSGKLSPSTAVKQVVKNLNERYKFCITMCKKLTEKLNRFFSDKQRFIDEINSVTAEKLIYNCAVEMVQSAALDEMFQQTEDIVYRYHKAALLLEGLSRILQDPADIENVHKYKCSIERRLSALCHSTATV

[7] = molecular target: T2, Serine/threonine-protein kinase ULK1 (Homo sapiens, UniProt O75385); experiment: Inhibition of ULK1 (unknown origin)
T2 sequence (O75385 whole entry): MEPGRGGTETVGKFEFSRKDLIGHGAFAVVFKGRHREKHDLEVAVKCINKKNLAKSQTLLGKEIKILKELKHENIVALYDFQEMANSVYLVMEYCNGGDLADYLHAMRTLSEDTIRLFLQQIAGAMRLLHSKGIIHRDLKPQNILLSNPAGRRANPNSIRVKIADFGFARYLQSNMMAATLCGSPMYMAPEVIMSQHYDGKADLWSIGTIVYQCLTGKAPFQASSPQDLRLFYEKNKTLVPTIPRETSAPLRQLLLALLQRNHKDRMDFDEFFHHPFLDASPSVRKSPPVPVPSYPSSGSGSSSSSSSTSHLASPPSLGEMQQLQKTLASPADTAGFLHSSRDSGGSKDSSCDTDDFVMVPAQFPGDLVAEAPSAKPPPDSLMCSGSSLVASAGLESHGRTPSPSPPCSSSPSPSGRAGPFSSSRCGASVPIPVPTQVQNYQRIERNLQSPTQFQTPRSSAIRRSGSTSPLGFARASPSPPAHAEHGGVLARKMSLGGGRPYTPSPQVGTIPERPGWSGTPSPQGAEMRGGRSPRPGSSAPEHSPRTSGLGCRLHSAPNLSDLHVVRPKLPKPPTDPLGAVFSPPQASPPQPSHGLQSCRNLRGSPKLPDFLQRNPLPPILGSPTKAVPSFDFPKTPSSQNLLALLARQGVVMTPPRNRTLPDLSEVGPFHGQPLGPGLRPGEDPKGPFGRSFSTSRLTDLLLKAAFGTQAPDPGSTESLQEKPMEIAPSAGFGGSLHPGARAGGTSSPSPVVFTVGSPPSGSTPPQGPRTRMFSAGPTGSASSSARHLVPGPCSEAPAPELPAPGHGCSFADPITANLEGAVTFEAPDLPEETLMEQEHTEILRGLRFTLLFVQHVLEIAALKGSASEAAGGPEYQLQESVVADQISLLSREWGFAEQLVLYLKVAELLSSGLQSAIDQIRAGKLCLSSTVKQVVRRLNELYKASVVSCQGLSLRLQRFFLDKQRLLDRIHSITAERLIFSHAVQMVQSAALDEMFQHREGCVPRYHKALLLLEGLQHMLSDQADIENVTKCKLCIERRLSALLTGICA

SMILES | IC50 [1] [nM] | IC50 [5] [nM] | further results
O=C(C1CC1)N1CCc2cc(Br)c(S(=O)(=O)Nc3cc(Cl)ccc3C(F)(F)F)cc21 | 2400 | – | –
CCN(CC)CCCC(C)Nc1c2ccc(Cl)cc2nc2ccc(OC)cc12 (centres undefined) [QUINACRINE] | – | – | EC50 (U2OS [2]): 250 nM; IC50 (U2OS [3]): 2500 nM
O=[N+]([O-])c1ccc(Oc2nc(Cl)cc(Nc3ccccc3)n2)cc1 | 2130 | – | –
NS(=O)(=O)c1ccc(Oc2nc(Cl)cc(Nc3cc[nH]n3)n2)cc1 | 450 | 61 | IC50 [4]: 420 nM
CC(C)(C)c1cc(Nc2cc(Cl)nc(Oc3ccc([N+](=O)[O-])cc3)n2)n[nH]1 | 1400 | 627 | IC50 [4]: 2000 nM
COC[C@H]1OC(=O)c2coc3c2[C@@]1(C)C1=C(C3=O)[C@@H]2CCC(=O)[C@@]2(C)CC1 | – | 17 | –
CCCCN/C=C1\C(=O)O[C@H](COC)[C@@]2(C)C1=C(O)C(=O)C1=C2[C@H](OC(C)=O)C[C@]2(C)C(=O)CC[C@@H]12 | – | 52 | –
Cc1cc(Nc2cc(C)[nH]n2)nc(Oc2ccc([N+](=O)[O-])cc2)n1 | 70 | 23 | IC50 [4]: 40 nM
COC[C@H]1OC(=O)c2coc3c2[C@@]1(C)C1=C(C3=O)[C@@H]2C[C@@H](OC(C)=O)C(OC(C)=O)[C@@]2(C)C[C@H]1OC(C)=O (some centres undefined) | – | 309 | –
COC[C@H]1OC(=O)c2coc3c2[C@@]1(C)C1=C(C3=O)[C@@H]2CCC(OC(C)=O)[C@@]2(C)C[C@H]1OC(C)=O (some centres undefined) | – | 59 | –
COC[C@H]1OC(=O)/C(=C\N)C2=C(O)C(=O)C3=C([C@H](OC(C)=O)C[C@]4(C)C(=O)CC[C@@H]34)[C@]21C | – | ≥ 500 | –
COC[C@H]1OC(=O)c2coc3c2[C@@]1(C)C1=CC[C@]2(C)C(=O)CC[C@H]2C1C3=O (some centres undefined) | – | 54 | –
Cc1ccc(NS(=O)(=O)c2cc3c(cc2Br)CCN3C(=O)C2CC2)cc1C(F)(F)F | 810 | – | –
CC(C)[C@H](NC(=O)c1cc(C2C=C3N=C(c4ccc(OCCN5CCCCC5)cc4)C=CN3N2)cs1)C(F)(F)F (some centres undefined) | – | – | IC50 [6]: 2.6 nM; IC50 [7]: 1.6 nM
COC[C@H]1OC(=O)C23CC2COC2=C3[C@@]1(C)C1=C(C2=O)[C@@H]2CCC(=O)[C@@]2(C)C[C@H]1OC(C)=O (some centres undefined) | – | ≥ 500 | –
O=C(C1CCC1)N1CCc2cc(Br)c(S(=O)(=O)Nc3ccc(Cl)c(C(F)(F)F)c3)cc21 | 3300 | – | –
Cc1cc(Nc2cc(Cl)nc(Oc3ccc([N+](=O)[O-])cc3)n2)no1 | 170 | 20 | IC50 [4]: 120 nM
COC[C@H]1OC(=O)c2coc3c2[C@@]1(C)C1=C(C3=O)[C@@H]2CC[C@H](O)[C@@]2(C)C[C@H]1OC(C)=O | – | 0.5 | –
O=[N+]([O-])c1ccc(Oc2nc(Cl)cc(Nc3cc(C4CC4)[nH]n3)n2)cc1 | 130 | 36 | IC50 [4]: 100 nM
CN1CCN(CCNc2c3ccccc3nc3cc(Cl)ccc23)CC1 | – | – | EC50 (U2OS [2]): 5000 nM; IC50 (U2OS [3]): 27000 nM
Cc1cc(Nc2cc(Cl)nc(Oc3ccc([N+](=O)[O-])cc3)n2)n[nH]1 | 90 | – | IC50 [4]: 40 nM
CCN(/C=C1\C(=O)O[C@H](COC)[C@@]2(C)C1=C(O)C(=O)C1=C2[C@H](OC(C)=O)C[C@]2(C)C(=O)CC[C@@H]12)CC | – | 80 | –
COc1ccc2nc3cc(Cl)ccc3c(NCCCCN3CCN(C)CC3)c2c1 | – | – | EC50 (U2OS [2]): 100 nM; IC50 (U2OS [3]): 700 nM
O=C(CC1CC1)N1CCc2cc(Br)c(S(=O)(=O)Nc3ccc(Cl)c(C(F)(F)F)c3)cc21 | 4500 | – | –

SMILES | IC50 [1] [nM] | IC50 [5] [nM] | further results
O=C(C1CC1)N1CCc2cc(Br)c(S(=O)(=O)Nc3cc(C(F)(F)F)ccc3F)cc21 | 1400 | – | –
CCCN/C=C1\C(=O)O[C@H](COC)[C@@]2(C)C1=C(O)C(=O)C1=C2[C@H](OC(C)=O)C[C@]2(C)C(=O)CC[C@@H]12 | – | ≥ 500 | –
Cc1cc(Nc2cc(Cl)nc(OCc3ccc([N+](=O)[O-])cc3)n2)n[nH]1 | 200 | 214 | IC50 [4]: 470 nM
CCN/C=C1\C(=O)O[C@H](COC)[C@@]2(C)C1=C(O)C(=O)C1=C2[C@H](OC(C)=O)C[C@]2(C)C(=O)CC[C@@H]12 | – | ≥ 500 | –
COC[C@H]1OC(=O)c2coc3c2[C@@]1(C)C1=C(C3=O)[C@@H]2CCC(=O)[C@@]2(C)C[C@H]1OC(C)=O [WORTMANNIN] | – | 4.2 | –
Cc1cc(Nc2cc(N3CCOCC3)nc(Oc3ccc([N+](=O)[O-])cc3)n2)n[nH]1 | 230 | 121 | IC50 [4]: 160 nM
Cc1cc(Nc2cc(C(F)(F)F)nc(Nc3ccc([N+](=O)[O-])cc3)n2)n[nH]1 | 340 | 310 | IC50 [4]: 440 nM
Cc1cc(Nc2cc(N3CCN(C)CC3)nc(Oc3ccc([N+](=O)[O-])cc3)n2)n[nH]1 | 390 | 146 | –
N#Cc1ccc(Oc2nc(Cl)cc(Nc3cc[nH]n3)n2)cc1 | 130 | 49 | IC50 [4]: 90 nM
COC[C@H]1OC(=O)C2=CCOC3=C2[C@@]1(C)C1=C(C3=O)[C@@H]2CCC(=O)[C@@]2(C)C[C@H]1OC(C)=O | – | 271 | –
O=C(N[C@@H](C1CC1)C(F)(F)F)c1cc(C2C=C3N=C(c4ccc(F)cc4)C=CN3N2)cs1 (some centres undefined) | – | – | IC50 [6]: 30 nM; IC50 [7]: 8.3 nM
CN/C=C1\C(=O)O[C@H](COC)[C@@]2(C)C1=C(O)C(=O)C1=C2[C@H](OC(C)=O)C[C@]2(C)C(=O)CC[C@@H]12 | – | ≥ 500 | –
Cc1cc(Nc2cc(C(F)(F)F)nc(Oc3ccc([N+](=O)[O-])cc3)n2)n[nH]1 | 190 | 78 | IC50 [4]: 70 nM
O=C(C1CC1)N1CCc2cc(Br)c(S(=O)(=O)Nc3ccc(Cl)c(C(F)(F)F)c3)cc21 | 140 | – | –
COC[C@H]1OC(=O)c2coc3c2[C@@]1(C)C1=C(C3=O)[C@@H]2C[C@@H](Br)C(OC(C)=O)[C@@]2(C)C[C@H]1OC(C)=O (some centres undefined) | – | 77 | –
COC(=O)c1coc2c(O)c3c(c(C)c12)C=C[C@]1(C)C(=O)CC[C@@H]31 | – | 4600 | –
Clc1cc(Nc2cc[nH]n2)nc(OCc2ccncc2)n1 | 380 | 110 | IC50 [4]: 280 nM
O=C(C1CC1)N1CCc2cc(Br)c(S(=O)(=O)Nc3cccc(C(F)(F)F)c3)cc21 | 560 | – | –
COC[C@H]1OC(=O)c2coc3c2[C@@]1(C)C1=C(C3=O)[C@@H]2C[C@@H](O)C(OC(C)=O)[C@@]2(C)C[C@H]1OC(C)=O (some centres undefined) | – | 153 | –
O=C(CC1CC1)N1CCc2ccc(S(=O)(=O)Nc3ccc(Cl)c(C(F)(F)F)c3)cc21 | 6600 | – | –
COC[C@H]1OC(=O)c2c(C)oc3c2[C@@]1(C)C1=C(C3=O)[C@@H]2CCC(=O)[C@@]2(C)C[C@H]1OC(C)=O | – | ≥ 500 | –
Cc1cc(Nc2cc(N(C)C)nc(Oc3ccc([N+](=O)[O-])cc3)n2)n[nH]1 | 450 | 285 | IC50 [4]: 280 nM
O=C(C1CC1)N1CCc2cc(Br)c(S(=O)(=O)Nc3cc(C(F)(F)F)ccc3Cl)cc21 | 1100 | – | –
CC(C)C(=O)N1CCc2cc(Br)c(S(=O)(=O)Nc3ccc(Cl)c(C(F)(F)F)c3)cc21 | 3000 | – | –
